Patent US11484601B2, “Targeting M2-like tumor-associated macrophages by using melittin-based proapoptotic peptide” (TWI[…]., priority 2018, dated 2022)

Key:
[1] = test system: 4T1-luciferase breast cancer cells; assay: 4T1-luciferase breast cancer in mammary gland of NOD-SCID mice; format: in vivo, mouse; conditions: 175 nmol/kg once every 3 days; for luminescence level at the metastasis site / metastasis area (lymph nodes of the armpit and lungs): 4 weeks; for growth of breast cancer cells in mammary gland: NOD-SCID mice
Experimental: More specifically, to identify the effect of MEL-dKLA on tumor growth and metastasis when breast cancer cells were […] into the breast, 4T1-luciferase breast cancer cells (1×10^5) were injected into NOD-SCID mice as immunodeficient mice. From the time point when the tumor mass began to grow in the mammary gland No. 4 on 5 days after the injection, 175 nmol/kg of each of PBS, dKLA, MEL and MEL-dKLA was injected into each group once every 3 days. To measure the growth of the tumor, the size of the tumor was measured once every 3 days using a caliper device, and all tumor tissues were collected 4 weeks after the injection. On 4 weeks after the tumor transplantation, in order to identify metastasis of the tumor to the lymph nodes and lungs, D-luciferin as a substrate of luciferase enzyme was diluted to a concentration of 40 mg/ml and then, 100 μl thereof was administered to mice in an intraperitoneal administration mode. After reacting for about 15 minutes, luminescence was measured using NightOwl (Berthold Technologies) as an in vivo imaging device. Then, we analyzed the luminescence with pictures of mice to identify the level of metastasis to the whole body and lungs. The animal experiment was approved by the Animal Management Committee of Kyunghee University [KHUASP(SE)-18-133], and the animals were managed via autonomous feeding of water and food under a 12-hour light/dark cycle environment without pathogens.

[2] = test system: RAW264.7 cells differentiated into M2 cells; assay: XF24 Extracellular Flux metabolic measurement (OCR, ECAR); format: cell-based, mouse; conditions: 1 μM peptide, compared to PBS-treated group
Experimental: […] assay was performed to measure the effect of MEL-dKLA on the metabolic action of mitochondria.
More specifically, the metabolic action was measured using an XF24 Extracellular Flux analyzer (Agilent, CA, USA). RAW264.7 cells were differentiated into M2 cells which were inoculated into XF-24 plates (3×10^4 cells/well). The next day, in order to minimize the potential stress due to changes in the situation, 1 μM of each peptide was applied thereto. Then, the cells were incubated in a 37° C. incubator under 5% CO2 condition. […] Then, the oxygen consumption rate (OCR) and the extracellular acidification rate (ECAR) were measured in real time.
Further, OCR was measured at a time point corresponding to 12 times. The basal state was measured at a time point corresponding to 3 times. Then, ATP-connected respiration after oligomycin addition was measured at a time point corresponding to further 3 times. Then, the maximum respiration after FCCP addition was measured at a time point corresponding to further 3 times. Then, a point at which non-mitochondrial respiration occurred after addition of Rot/AA was measured at a time point corresponding to remaining 3 times. Thus, the mitochondria respiration ability was measured. ECAR indicating the glycolysis rate was measured at the same time points.

[3] = test system: 4T1-luciferase breast cancer cells; assay: 4T1-luciferase tail vein metastaticity model in BALB/c mice; format: in vivo, mouse; conditions: 175 nmol/kg once every 3 days, 15 days after tail vein injection
Experimental: Additionally, 4T1-luciferase breast cancer cells (1×10^5) were injected into BALB/c mice through a tail vein in order to identify metastaticity of tumor cells. 3 days after the injection, 175 nmol/kg of each of PBS, dKLA, MEL and MEL-dKLA was injected into each group once every 3 days. 15 days after the cancer cell injection, D-luciferin as a substrate of luciferase enzyme was diluted to a concentration of 40 mg/ml, and then 100 μl thereof was administered to mice in an intraperitoneal administration mode, Then, reaction occurred for about 15 minutes. NightOwl (Berthold Technologies) was used in combination with photographs of mice to analyze the level of settlement and metastasis of cancer cells to the whole body and lungs.

LLC tumor cells = assay: LLC lung cancer tumor model in C57BL/6 mice; format: in vivo, mouse; conditions: 175 nmol/kg intraperitoneally
Experimental: More specifically, C57BL/6 wild-type mice were purchased from DBL (Korea). LLC tumor cells were mixed with Matrigel (Corning, NY, USA) and then the mixture was injected into the right flank of mice (5×10^4 cells/mouse). Five days after tumor cell injection, the recombinant dKLA, MEL, and MEL-dKLA peptides were injected intraperitoneally thereto for 3 days for a total of three times (175 nmol/kg dosage/weight per each time). All tumor tissues were harvested 12 days after the injection. The animal experiment was approved by the Animal Management Committee of Kyunghee University [KHUASP(SE)-17-087]. The animals were managed via autonomous feeding of water and food under a 12-hour light/dark cycle environment without pathogens.

Ym1 = assay: Quantitative real-time PCR of lung tissue, Ym1; format: in vivo, mouse; conditions: vs PBS-treated group
Experimental: (§1) To measure the ability of MEL-dKLA to inhibit tumor metastasis, expression levels of CD44 known to interact with extracellular matrix ligand to promote metastasis and invasion and thus to be widely expressed in cancer, CCL22 known as M2-type macrophage marker, HIF-1α known as a marker of angiogenesis, metastasis and invasion, Ym1 as a marker of M2-type macrophage, and MMP-9 involved in the migration and settlement of tumor cells were measured via quantitative real-time PCR.
(§2) More specifically, RNA was extracted from lung tissue using an easy-BLUE RNA extraction kit (iNtRON Biotechnology, Korea). Then, cDNA was synthesized according to the manual for cyclescript reverse transcriptase (Bioneer, Korea). cDNA synthesis conditions were as follows: 15 seconds at 95, 10 seconds at 55, and 10 seconds at 72. Each reaction was conducted 3 times. […] Quantitative real-time PCR was performed using the SensiFAST SYBR no-Rox kit (Bioline, Korea).

HIF-1α = assay: Quantitative real-time PCR of lung tissue, HIF-1α; format: in vivo, mouse; conditions: vs PBS-treated group
Experimental: as §1, §2

Compound | luminescence level at the metastasis site [1] | metastasis area (lymph nodes of the armpit and lungs) [1] | growth of breast cancer cells in mammary gland [1] | basal respiration (baseline OCR) [2] | metastaticity, luminescence of cancer cells throughout the whole body [3] | tumor size (LLC tumor cells) | expression of Ym1 (Ym1) | expression of HIF-1α (HIF-1α) | tumor growth (LLC tumor cells; three times, compared to PBS control)
CC[C@H](C)[C@H](NC(=O)CN)C(=O)NCC(=O)N[C@@H](C)C(=O)N[C@H](C(=O)N[C@@H](CC(C)C)C(=O)N[C@@H](CCCCN)C(=O)N[C@H](C(=O)N[C@@H](CC(C)C)C(=O)N[C@H](C(=O)N[C@H](C(=O)NCC(=O)N[C@@H](CC(C)C)C(=O)N1CCC[C@H]1C(=O)N[C@@H](C)C(=O)N[C@@H](CC(C)C)C(=O)N[C@H](C(=O)N[C@@H](CO)C(=O)N[C@@H](Cc1c[nH]c2ccccc12)C(=O)N[C@H](C(=O)N[C@@H](CCCCN)C(=O)N[C@@H](CCCNC(=N)N)C(=O)N[C@@H](CCCCN)C(=O)N[C@@H](CCCNC(=N)N)C(=O)N[C@@H](CCC(N)=O)C(=O)N[C@@H](CCC(N)=O)C(N)=O)[C@@H](C)CC)[C@@H](C)CC)[C@@H](C)O)[C@@H](C)O)C(C)C)C(C)C [MEL] | exhibited a tendency to decrease but did not exhibit significance | no significant difference from the PBS-treated group | did not occur significantly | no change in baseline OCR | metastasis was reduced | significantly reduced | no significant difference | not significantly different | 
d[KLAKLAKKLAKLAK] (D-amino acids) [dKLA, pro-apoptotic peptide KLA, used as control] | exhibited a tendency to decrease but did not exhibit significance | no significant difference from the PBS-treated group | did not occur significantly | no change in baseline OCR | measured at a high level throughout the body |  | increased significantly | not significantly different | tumor steadily grew
